The source made the active and inactive calls.
Columns and labels:
[1] = intracellular Trypanosoma cruzi inhibitors in host cells – cell-based, plate reader, cherry-pick samples, set 3, dose response (AID 651818); type: functional;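 further: compounds incubated with infected cells for about four days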
BJ [2] = experiment: BJ-TERT-LT-ST fibroblast viability loss – cell-based, RAS-independent, luminescence, dose response (AID 1935); type: functional; details: Homo sapiens;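 further: BJ fibroblasts immortalized with TERT plus LT and ST oncogenes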
BJ [3] = experiment: cells; type: functional, cell-based; details: Homo sapiens
[4] = DRD fibroblast viability loss – cell-based, non-viral oncogenic, luminescence, dose response (AID 1934); type: functional; details: Homo sapiens
BJ [5] = experiment: BJ-TERT fibroblast viability loss – cell-based, RAS-independent, luminescence, dose response (AID 1933); type: functional; details: Homo sapiens
BJ [6] = experiment: growth inhibition of engineered Ras-driven BJ cells – cell-based, alamar blue fluorescence, cherrypicked samples, dose response (AID 2631); type: functional; details: Homo sapiens;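 further: confirmatory dose-response assay in RAS-dependent BJ fibroblasts engineered with TERT, LT and ST, with cytotoxicity read by fluorescence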
[7] = target: T1, Carboxy-terminal domain RNA polymerase II polypeptide A small phosphatase 1 (Homo sapiens, UniProt Q9GZU7); experiment: CTDSP1 inhibitors, concentration-response, biochemical, absorbance readout, ultra-high-throughput screen actives (AID 540297); type: functional
T1 sequence (Q9GZU7 whole entry): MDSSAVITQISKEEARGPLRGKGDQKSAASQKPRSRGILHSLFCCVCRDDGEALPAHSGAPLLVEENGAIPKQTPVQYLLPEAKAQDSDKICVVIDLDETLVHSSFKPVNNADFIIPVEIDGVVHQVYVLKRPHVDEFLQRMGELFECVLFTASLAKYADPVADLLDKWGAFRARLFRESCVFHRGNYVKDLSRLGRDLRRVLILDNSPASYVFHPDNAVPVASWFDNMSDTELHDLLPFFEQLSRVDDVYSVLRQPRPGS

P388 = experiment: cells; type: functional; details: Mus musculus
[8] = Luminescence Cell-Based Dose Response HTS to Identify Inhibitors of 5'UTR Stem-Loop Driven Prion Protein mRNA Translation in H4 Neuroglioblastoma Cells. [Related pubchem assays: 1827 (Project Summary), 1813 (Primary HTS)]; type: functional
P388/ADR = experiment: cells; type: functional; details: Mus musculus
SN12K1 = experiment: cells; type: functional; details: Homo sapiens
[9] = alpha-synuclein stem-loop luciferase translation blockers – H4 neuroglioma cells, luminescence, confirmation (AID 1988); type: functional, cell-based
[10] = luciferase reporter signal suppression in cells – H4 neuroglioma cells, luminescence, dose response (AID 1990); type: functional, cell-based
[11] = target: T2, Type-1 angiotensin II receptor (Homo sapiens, UniProt P30556); experiment: antagonism of angiotensin II type 1 receptor – cell-based, uHTS hits, selectivity assay for APJ receptor antagonist project, dose response (AID 463214); type: functional;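 further: antagonist potency against angiotensin II stimulated AT1 response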
T2 sequence (P30556 whole entry): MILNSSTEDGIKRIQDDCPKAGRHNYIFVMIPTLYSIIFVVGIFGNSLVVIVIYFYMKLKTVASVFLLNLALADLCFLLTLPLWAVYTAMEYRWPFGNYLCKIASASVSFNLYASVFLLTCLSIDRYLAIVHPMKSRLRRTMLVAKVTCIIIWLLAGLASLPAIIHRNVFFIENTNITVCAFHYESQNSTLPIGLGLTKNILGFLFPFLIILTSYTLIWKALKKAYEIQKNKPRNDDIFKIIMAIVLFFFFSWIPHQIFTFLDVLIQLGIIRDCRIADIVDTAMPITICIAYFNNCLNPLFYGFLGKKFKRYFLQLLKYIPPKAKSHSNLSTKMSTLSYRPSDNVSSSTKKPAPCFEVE

Beta-galactosidase = Beta-galactosidase (Escherichia coli, UniProt Q8VNN2); experiment: PubChem AID 485352; type: functional
Chain of Beta-galactosidase (Q8VNN2 whole entry): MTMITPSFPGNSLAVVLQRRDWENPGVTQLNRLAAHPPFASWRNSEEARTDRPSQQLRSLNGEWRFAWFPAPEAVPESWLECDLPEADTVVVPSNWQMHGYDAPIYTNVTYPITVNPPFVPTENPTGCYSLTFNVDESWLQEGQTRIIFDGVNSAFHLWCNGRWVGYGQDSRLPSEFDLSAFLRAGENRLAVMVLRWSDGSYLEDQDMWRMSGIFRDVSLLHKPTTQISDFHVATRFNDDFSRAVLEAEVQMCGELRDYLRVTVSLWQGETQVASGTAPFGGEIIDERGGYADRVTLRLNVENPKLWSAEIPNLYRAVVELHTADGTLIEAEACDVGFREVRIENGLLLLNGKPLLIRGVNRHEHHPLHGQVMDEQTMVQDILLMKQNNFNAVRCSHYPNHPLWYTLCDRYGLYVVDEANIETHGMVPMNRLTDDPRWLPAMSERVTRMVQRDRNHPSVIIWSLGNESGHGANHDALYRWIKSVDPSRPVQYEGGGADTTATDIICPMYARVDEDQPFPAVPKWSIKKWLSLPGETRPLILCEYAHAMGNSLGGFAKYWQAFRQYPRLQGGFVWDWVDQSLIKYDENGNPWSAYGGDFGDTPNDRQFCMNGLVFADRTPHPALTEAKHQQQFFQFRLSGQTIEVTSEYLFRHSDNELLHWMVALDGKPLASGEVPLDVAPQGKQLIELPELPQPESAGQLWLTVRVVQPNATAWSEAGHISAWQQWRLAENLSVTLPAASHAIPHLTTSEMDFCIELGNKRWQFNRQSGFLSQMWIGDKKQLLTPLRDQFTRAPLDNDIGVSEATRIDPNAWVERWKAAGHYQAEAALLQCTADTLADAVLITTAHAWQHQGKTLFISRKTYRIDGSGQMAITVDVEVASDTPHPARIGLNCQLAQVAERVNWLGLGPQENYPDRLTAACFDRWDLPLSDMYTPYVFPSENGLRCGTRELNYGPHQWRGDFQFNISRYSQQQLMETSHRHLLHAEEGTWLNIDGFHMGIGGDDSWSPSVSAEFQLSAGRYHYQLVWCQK

[12] = target: T3, Adenosylmethionine-8-amino-7-oxononanoate aminotransferase (Mycobacterium tuberculosis, UniProt P9WQ81); experiment: Mycobacterium tuberculosis BioA enzyme inhibitor Measured in Biochemical System Using Plate Reader - 2163-02_Inhibitor_Dose_CherryPick_Activity.; type: functional, Mycobacterium tuberculosis UT205
T3 sequence (P9WQ81 whole entry): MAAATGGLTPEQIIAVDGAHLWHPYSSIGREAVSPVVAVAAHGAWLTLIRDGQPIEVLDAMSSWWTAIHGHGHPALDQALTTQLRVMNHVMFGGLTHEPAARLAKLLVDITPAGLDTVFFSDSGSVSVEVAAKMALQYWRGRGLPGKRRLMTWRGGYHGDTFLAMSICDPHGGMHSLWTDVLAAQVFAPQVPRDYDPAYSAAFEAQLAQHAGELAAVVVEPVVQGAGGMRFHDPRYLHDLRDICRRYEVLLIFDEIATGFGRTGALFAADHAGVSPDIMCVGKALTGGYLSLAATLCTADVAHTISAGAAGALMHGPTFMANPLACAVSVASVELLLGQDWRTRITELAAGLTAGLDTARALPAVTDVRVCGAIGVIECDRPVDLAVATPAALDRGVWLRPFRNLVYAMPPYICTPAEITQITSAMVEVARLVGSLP

[13] = Trypanosoma cruzi growth suppression in host cells – NIH3T3 host cells, beta-gal luminescence, confirmation (AID 2044); type: functional, cell-based;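 further: intracellular parasites grown in NIH/3T3 mouse fibroblasts as host cells; luminescent beta-galactosidase reporter signal from transgenic T. cruzi replicating inside host cells; inhibitors lower the luminescence signal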
[14] = NIH3T3 cell viability loss – ATP luminescence, mouse fibroblasts, counter-screen, dose response (AID 2010); type: functional, cell-based;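 further: cells exposed to compound for about 90 hours before reading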
[15] = fluconazole-exposed Candida albicans growth modulators – fluorescence, retest, confirmation (AID 2467); type: functional, cell-based
[16] = NIH-3T3 fibroblast cytotoxicity, dose response, cytotoxicity control, cell-based, fluorescence, Alamar Blue, secondary assay (AID 2327); type: functional;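 further: NIH-3T3 mouse fibroblasts cultured with fluconazole at 8 µg/mL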
[17] = Luminescence Cell-Based Dose Retest to Confirm Inhibitors of Cancer Stem Cells. [Related pubchem assays (depositor defined):AID2717, AID2721]; type: functional; details: Homo sapiens
Cytochrome P450 3A4 = Cytochrome P450 3A4 (Homo sapiens, UniProt P08684);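 further: CYP3A4 tested as one member of a cytochrome P450 panel screen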
Chain of Cytochrome P450 3A4 (P08684 whole entry): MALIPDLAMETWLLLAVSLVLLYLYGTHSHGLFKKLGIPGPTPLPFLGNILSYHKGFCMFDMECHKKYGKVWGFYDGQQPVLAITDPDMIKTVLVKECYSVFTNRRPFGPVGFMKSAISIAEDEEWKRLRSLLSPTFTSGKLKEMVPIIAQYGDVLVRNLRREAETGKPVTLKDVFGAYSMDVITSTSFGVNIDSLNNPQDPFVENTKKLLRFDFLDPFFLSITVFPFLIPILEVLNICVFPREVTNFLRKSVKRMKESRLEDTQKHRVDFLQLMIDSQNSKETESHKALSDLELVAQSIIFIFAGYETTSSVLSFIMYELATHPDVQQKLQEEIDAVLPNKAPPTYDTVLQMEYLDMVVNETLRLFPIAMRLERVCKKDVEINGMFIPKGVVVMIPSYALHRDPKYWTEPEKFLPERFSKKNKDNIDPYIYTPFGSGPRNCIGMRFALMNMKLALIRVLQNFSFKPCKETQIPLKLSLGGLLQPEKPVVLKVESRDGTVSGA

Cytochrome P450 2C9 = Cytochrome P450 2C9 (Homo sapiens, UniProt P11712)
Chain of Cytochrome P450 2C9 (P11712 whole entry): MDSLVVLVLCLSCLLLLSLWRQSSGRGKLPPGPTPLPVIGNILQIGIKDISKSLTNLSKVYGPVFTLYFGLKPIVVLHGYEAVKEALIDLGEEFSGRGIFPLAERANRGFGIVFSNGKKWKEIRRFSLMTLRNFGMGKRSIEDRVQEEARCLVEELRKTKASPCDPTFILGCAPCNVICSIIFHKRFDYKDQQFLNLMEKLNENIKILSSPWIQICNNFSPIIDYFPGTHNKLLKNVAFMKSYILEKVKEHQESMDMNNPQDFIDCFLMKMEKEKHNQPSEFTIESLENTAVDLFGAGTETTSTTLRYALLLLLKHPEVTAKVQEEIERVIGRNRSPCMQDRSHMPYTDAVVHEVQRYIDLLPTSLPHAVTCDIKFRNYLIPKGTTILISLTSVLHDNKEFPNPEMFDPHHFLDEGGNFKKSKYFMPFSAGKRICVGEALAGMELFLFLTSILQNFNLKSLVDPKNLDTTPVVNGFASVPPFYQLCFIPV

Cytochrome P450 1A2 = target: T4, Cytochrome P450 1A2 (Homo sapiens, UniProt P05177);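 further: PubChem cytochrome P450 panel assay, CYP1A2 panel member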
T4 sequence (P05177 whole entry): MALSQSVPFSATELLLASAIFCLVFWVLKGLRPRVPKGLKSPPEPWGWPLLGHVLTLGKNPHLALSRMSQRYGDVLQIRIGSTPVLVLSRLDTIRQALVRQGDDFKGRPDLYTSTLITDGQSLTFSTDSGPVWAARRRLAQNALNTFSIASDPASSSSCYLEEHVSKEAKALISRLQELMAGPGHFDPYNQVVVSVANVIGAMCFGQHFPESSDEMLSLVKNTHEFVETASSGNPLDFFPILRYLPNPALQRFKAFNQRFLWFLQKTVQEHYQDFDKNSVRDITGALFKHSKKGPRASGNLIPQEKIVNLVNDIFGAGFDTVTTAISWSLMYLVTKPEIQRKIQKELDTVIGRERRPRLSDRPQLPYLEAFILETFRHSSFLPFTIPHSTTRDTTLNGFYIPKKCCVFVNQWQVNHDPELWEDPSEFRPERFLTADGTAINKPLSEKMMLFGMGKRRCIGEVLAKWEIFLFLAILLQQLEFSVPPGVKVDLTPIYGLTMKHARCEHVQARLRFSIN

Cytochrome P450 2C19 = Cytochrome P450 2C19 (Homo sapiens, UniProt P33261); experiment: Cytochrome panel assay with activity outcomes. Panel member name: p450-cyp2c19 Compounds with AC50 equal or less than 10 uM are considered active; type: functional; details: read-out: AC50
Chain of Cytochrome P450 2C19 (P33261 whole entry): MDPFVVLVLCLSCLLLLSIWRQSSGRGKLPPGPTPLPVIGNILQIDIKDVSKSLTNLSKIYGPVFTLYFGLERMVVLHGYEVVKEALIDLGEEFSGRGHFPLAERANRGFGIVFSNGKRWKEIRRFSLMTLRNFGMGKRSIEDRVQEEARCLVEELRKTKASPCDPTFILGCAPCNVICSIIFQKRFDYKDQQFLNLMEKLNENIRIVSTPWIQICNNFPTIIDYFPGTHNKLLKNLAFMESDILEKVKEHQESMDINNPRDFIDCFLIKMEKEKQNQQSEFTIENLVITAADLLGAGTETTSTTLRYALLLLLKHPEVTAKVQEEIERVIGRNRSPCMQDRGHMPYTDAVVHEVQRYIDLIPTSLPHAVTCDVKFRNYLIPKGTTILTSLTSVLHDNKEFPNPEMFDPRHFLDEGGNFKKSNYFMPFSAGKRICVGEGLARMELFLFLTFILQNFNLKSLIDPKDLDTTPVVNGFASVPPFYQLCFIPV

[18] = target: T5, Heat shock factor protein 1 (Mus musculus, UniProt P38532); experiment: decrease of HSF1-responsive luciferase luminescence – cell-based, NIH3T3, dose retest, confirmation (AID 2382); type: functional;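 further: NIH3T3 fibroblasts with HSF1-driven luciferase reporter stressed by proteasome inhibitor MG132; luminescence from HSF1-driven luciferase expression after 8 hours of MG132 stress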
T5 sequence (P38532 whole entry): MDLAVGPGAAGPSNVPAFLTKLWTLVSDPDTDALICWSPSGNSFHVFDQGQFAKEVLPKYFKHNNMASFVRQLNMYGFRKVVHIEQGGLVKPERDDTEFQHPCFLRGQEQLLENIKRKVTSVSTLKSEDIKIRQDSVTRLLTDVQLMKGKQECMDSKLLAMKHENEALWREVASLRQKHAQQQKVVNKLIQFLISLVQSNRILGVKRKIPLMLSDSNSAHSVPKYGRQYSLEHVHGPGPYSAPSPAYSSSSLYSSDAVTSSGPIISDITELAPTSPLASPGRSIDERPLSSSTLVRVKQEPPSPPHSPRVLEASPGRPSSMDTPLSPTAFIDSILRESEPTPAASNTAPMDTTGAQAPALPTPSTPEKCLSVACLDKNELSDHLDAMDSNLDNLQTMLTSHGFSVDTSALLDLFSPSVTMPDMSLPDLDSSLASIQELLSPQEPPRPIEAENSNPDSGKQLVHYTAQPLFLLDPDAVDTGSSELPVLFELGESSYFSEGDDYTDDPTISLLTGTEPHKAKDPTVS

COc1ccc(S(=O)(=O)Nc2ccc3c(c2)CC(=O)N([C@@H](C)CO)C[C@H](C)[C@H](CN(C)Cc2ccc(C(=O)Nc4ccccc4N)cc2)O3)cc1
AC50 [1]: 3.23 µM (active)

CCCC(=O)Nc1ccc(C(=O)N/N=C/c2ccc([N+](=O)[O-])o2)cc1
EC50 (BJ [2]): 534 nM (inconclusive)
EC50 (BJ [3]): 380 nM (active)
EC50 [4]: 26.5 µM (active)
EC50 (BJ [5]): 17.2 µM (active)
EC50 (BJ [6]): 123 nM (active)

CCOC(=O)/C=C1\CN(C(C)c2ccccc2)S(=O)(=O)c2ccccc21 (centres undefined)
IC50 [7]: 12.3 µM (active)

COC(=O)C[C@](O)(CCCC(C)(C)O)C(=O)O[C@@H]1C(OC)=C[C@]23CCCN2CCc2cc4c(cc2[C@H]13)OCO4 [OMACETAXINE MEPESUCCINATE]
GI50 (P388): 3.88 nM (active)
EC50 [8]: < 100 nM (active)
GI50 (P388/ADR): 247 nM (active)
GI50 (SN12K1): 11.5 nM (active)
EC50 [9]: < 100 nM (active)
EC50 [10]: < 100 nM (active)
EC50 (BJ [6]): 4.88 nM (active)

COc1ccc(S(=O)(=O)N(C)C[C@H]2Oc3ccc(NS(=O)(=O)c4ccc(Cl)cc4)cc3CC(=O)N([C@H](C)CO)C[C@H]2C)cc1
AC50 [1]: 4.94 µM (active)

O=C(COC(=O)c1cnccn1)c1cccc([N+](=O)[O-])c1
IC50 [11]: 13.6 µM (active)
EC50 (Beta-galactosidase): > 40 µM (inactive)

CCc1c(C(=O)NCCc2ccc(OC)c(OC)c2)[nH]c(C)c1C(C)=O
AC50 [12]: 3.74 µM (active)

COc1ccc(S(=O)(=O)Nc2ccc3c(c2)CC(=O)N([C@H](C)CO)C[C@@H](C)[C@@H](CN(C)Cc2ccc(C(=O)Nc4ccccc4N)cc2)O3)cc1
AC50 [1]: 2.9 µM (active)

C[C@H]1CN([C@@H](C)CO)C(=O)Cc2cc(NC(=O)NC3CCCCC3)ccc2O[C@@H]1CN(C)Cc1ccc(Oc2ccccc2)cc1
AC50 [1]: 6.74 µM (active)

COc1ccc(C(=O)Nc2ccc(Cn3ccnc3)cc2)cc1OC
AC50 [12]: 7.74 µM (active)

C[C@@H]1CN([C@@H](C)CO)C(=O)Cc2cc(NC(=O)Cc3ccccc3)ccc2O[C@@H]1CN(C)Cc1ccc(Oc2ccccc2)cc1
AC50 [1]: 2.61 µM (active)

COc1cccc2sc(Nc3nc(C)c(C(C)=O)s3)nc12
EC50 [13]: 1.82 µM (active)
EC50 [14]: 7.09 µM (active)
IC50 [11]: 23.3 µM (not active)
EC50 (Beta-galactosidase): > 40 µM (inactive)

O=C(NNC(=O)c1cc2ccccc2cc1O)NC1CCCCC1
EC50 [15]: > 38 µM (not active)
EC50 [16]: > 150 µM (inactive)

Cc1ccc(/C=C(\CCC(=O)O)c2nc3ccccc3s2)cc1[N+](=O)[O-]
AC50 [12]: 0.153 µM (active)

Cc1cc(C)c2sc(N(CCCN(C)C)C(=O)c3ccc(S(=O)(=O)N4CCCc5ccccc54)cc3)nc2c1
AC50 [17]: 4.46 µM (active)
EC50 [13]: 0.452 µM (active)
EC50 [14]: 12.2 µM (active)
IC50 [11]: > 40 µM (not active)
EC50 (Beta-galactosidase): > 40 µM (inactive)

Cc1onc(C(=O)Nc2sc3c(c2C#N)CCCC3)c1[N+](=O)[O-]
EC50 [15]: 1.59 µM (active)
EC50 [16]: > 75 µM (inactive)

Cc1c(Cc2ccccc2)c(=O)oc2c(C)c(OCC(=O)NC[C@H]3CC[C@H](C(=O)O)CC3)ccc12
IC50 [7]: 4.87 µM (active)

CCOc1c2ccc(C(=O)NCc3ccccc3OC)cc2nn1CC
AC50 (Cytochrome P450 3A4): 15.8 µM (inconclusive)
AC50 (Cytochrome P450 2C9): inconclusive
AC50 (Cytochrome P450 1A2): 17.8 µM (inconclusive)
AC50 (Cytochrome P450 2C19): 39.8 µM (inconclusive)
EC50 [18]: > 195 µM (not active)

C[C@@H]1CCCCO[C@@H](CN(C)Cc2ccc(Cl)c(Cl)c2)[C@@H](C)CN([C@H](C)CO)C(=O)c2cc(NC(=O)NC3CCCCC3)ccc2O1
AC50 [1]: 5.48 µM (active)

C[C@@H]1CCCCO[C@H](CN(C)C(=O)Nc2ccc(C(F)(F)F)cc2)[C@@H](C)CN([C@H](C)CO)C(=O)c2cc(NC(=O)C3CCCCC3)ccc2O1
AC50 [1]: 1.12 µM (active)

Cc1cc(C)n(-c2ccc(C(=O)Nc3ccc4c(c3)OCO4)cc2)n1
AC50 [12]: 4.31 µM (active)

N=C1/C(=C/c2cccn2-c2ccc([N+](=O)[O-])cc2)C(=O)N=C2SC=CN12
EC50 [15]: 1.33 µM (active)
EC50 [16]: > 160 µM (inactive)

Cn1c(=O)c(C(=S)NC(=O)C2CC2)c(N)n(Cc2ccccc2)c1=O
IC50 [11]: > 40 µM (not active)
EC50 (Beta-galactosidase): > 40 µM (inactive)

Source: ChEMBL document CHEMBL1201862, “PubChem BioAssay data set” (2004)
